In US10344054B2, “Angiotensin-1-receptor antagonists” (Ferring B.V., priority 2016, dated 2019) one finds Emax and IC50 data, which are given here for 12 compounds.

The target in assay [1] is T1, hAT1R (Homo sapiens, UniProt P30556).
T1 sequence (P30556 1-359): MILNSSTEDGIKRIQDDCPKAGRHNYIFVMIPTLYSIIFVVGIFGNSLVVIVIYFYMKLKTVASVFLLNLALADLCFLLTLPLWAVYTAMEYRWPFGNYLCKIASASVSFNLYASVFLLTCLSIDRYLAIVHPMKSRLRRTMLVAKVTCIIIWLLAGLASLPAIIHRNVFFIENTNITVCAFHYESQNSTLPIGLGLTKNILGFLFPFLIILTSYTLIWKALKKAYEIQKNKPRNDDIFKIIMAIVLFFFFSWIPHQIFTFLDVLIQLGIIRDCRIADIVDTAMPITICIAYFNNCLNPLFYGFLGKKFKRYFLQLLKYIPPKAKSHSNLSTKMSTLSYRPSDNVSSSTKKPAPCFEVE
The assay can be described thus: FLIPR calcium flux assay, Part I: agonist activity. The assay is classed as cell-based. Conditions: read-out: hAT1R Agonist Efficacy Agonist (%) Ave. The method, then: (§1) AT1 receptor (AT1R) agonists increase intracellular flux of calcium ions. AT1R antagonists can reduce the agonist effect. […] Compounds were first tested for agonism (Part I) followed by addition of the AT1R agonist angiotensin II to test for antagonist activity (Part II). This assay used a stable hAT1R expressing cell line (ChanTest hAT1R; ChanTest Corp A628). Intracellular flux of calcium in response to agonist was measured through real-time measurement of fluorescence induced through the interaction of Ca2+ (released from intracellular stores) and calcium-sensitive dye. In Part I, cells were exposed to varying concentrations of test compounds and immediately measured for agonist activity (EC50 and Efficacy).
(§2) ChanTest hAT1R stable cells were maintained in Ham's F12 containing 10% (v/v) heat inactivated fetal bovine serum (FBS-HI), 4 mM Glutamax, 1% NEAA, 50 ng/mL plasmocin, 400 μg/mL G418 at 37° C. under 5% CO2 in a humidified atmosphere.
(§3) For FLIPR assay, ChanTest hAT1R cells were trypsinized with 6 ml of Trypsin EDTA solution and harvested in phenol-red free DMEM containing 10% FBS-HI, 4 mM Glutamax and counted, spun down and resuspended in the same medium. The cell suspension was added to the wells of 384-well black PDL clear bottom plates at 2.5×10^4 cells/well, 20 μl/well.
(§4) Preparation of Loading Buffer:
(§5) • Loading Buffer: 1 vial of Calcium 5 Bulk Assay reagent was dissolved in 100 ml of 1× HBSS-20 mM Hepes buffer. • Probenecid was resuspended at 1 M in 1 M NaOH. Once the probenecid had gone into solution, an equal volume of H2O was added to make a solution of 500 mM followed by a 1:100 dilution in the Loading Buffer for a working concentration of 5 mM. The pH was adjusted to 7.4 using 1 M NaOH. Loading the Cells with Loading Buffer • Cell plates were removed from the incubator and 25 μl of Loading Buffer containing probenecid (5 mM) added to each well. • Plates were incubated for 1 hour at 37° C. under 5% CO2 in a humidified atmosphere. […] The remaining steps of the assay were carried forward by FLIPR Tetra. A baseline reading was taken at 1-second (s) intervals for 10 s followed by the addition of 5 μl of 10× compounds. The compound-induced fluorescence signal was then measured for 3 minutes with readings taken at 1-s intervals. • The cell plate was removed from the FLIPR and set aside for an additional 17 minutes. • The cell plate was then transferred back to the FLIPR Tetra, along with the 384 well Angiotensin II agonist dilution plate. A baseline reading was taken at 1-second (s) intervals for 10 seconds, followed by the addition of 5.5 μl of 10× Angiotensin II agonist. The agonist-induced fluorescence signal was then measured for 3 minutes with readings taken at 1-s intervals. • Overall, each well in the FLIPR assay was composed of the following components in a total volume of 55.5 μl:
(§6) Time-course results from the FLIPR Calcium 5 assay were expressed as relative fluorescence light units (RFU). The maximum minus minimum values (Max−Min) were used to quantify the strength of the signal. Mean RFU were calculated from replicate values and plotted on the y-axis versus compound concentration on a logarithmic scale on the x-axis, and a single-binding site, four parameter concentration response model: (MIN+((MAX−MIN)/(1+((EC50/x)^Hill)))), was used to perform non-linear regression analysis, generating concentration response curves. Reported parameters included agonist potency EC50 (the concentration causing half-maximal agonist response), antagonist potency IC50 (the concentration causing half-maximal inhibition of the agonist response for antagonist compounds) and efficacy (% MPE: percent of the maximal possible effect).
For orientation: A change in cytosolic calcium serves as a functional read-out for many receptors and channels.

In assay [2] the target is T1, hAT1R. Briefly: FLIPR calcium flux assay, Part II: antagonist activity against Angiotensin II. On hAT1R Antagonist Efficacy Antag (%) Ave: Angiotensin II 10 nM final concentration. Conditions: for Emax: read-out: hAT1R Antagonist Efficacy Antag (%) Ave. It counts as cell-based. How it is done:
as §1, §2, §3, §4, §5, §6

The mark [3] stands for this setting: ChanTest hAT1R stable cells, % MPE, percent of the maximal possible effect.
[4] abbreviates: read-out: hAT1R Antagonist IC50 Ave.

Like-named read-outs stand apart in the source and are kept apart here. Starred links: 1 amine or outer side, 2 acyl side, 3 side chain; linkers in the order of their positions; H or OH if unused. Non-standard residues stand in square brackets, D forms with d. Residues, ends and D or L forms follow the SMILES beside them. X1 = O=C(CN(C[C@H](O)[C@@H](O)[C@H](O)[C@H](O)CO)[*:1])[*:2]; dPhe(2-Ph) = N[C@H](Cc1ccccc1-c1ccccc1)C(=O)O; dPhe(2-Cl) = N[C@H](Cc1ccccc1Cl)C(=O)O; Gly(cPent) = N[C@H](C(=O)O)C1CCCC1; Chg = N[C@H](C(=O)O)C1CCCCC1

In general, IC50 refers to the concentration that inhibits the measured activity by half. In the case of `CNCC(=O)N[C@@H](CCCNC(=N)N)C(=O)N[C@H](C(=O)N[C@@H](Cc1ccc(O)cc1)C(=O)N[C@H](C(=O)N[C@@H](Cc1c[nH]cn1)C(=O)N1CCC[C@H]1C(=O)N[C@H](Cc1ccc(Cl)cc1Cl)C(=O)O)C(C)C)C(C)C` [Compound 7, Sar-Arg-Val-Tyr-Val-His-Pro-(D-Phe(2,4-diCl))—OH] (HELM PEPTIDE1{[Sar].R.V.Y.V.H.P.[O=C(O)[C@@H](Cc1ccc(Cl)cc1Cl)N[*:1]]}$$$$V2.0), the Emax on hAT1R [1] (setting [3]) worked out at 12%; at hAT1R [2], 99%. For the same compound, the IC50 on hAT1R [2] (setting [4]) amounted to 6.4 nM.
Turning to `CNCC(=O)N[C@@H](CCCNC(=N)N)C(=O)N[C@H](C(=O)N[C@@H](Cc1ccc(O)cc1)C(=O)N[C@H](C(=O)N[C@@H](Cc1c[nH]cn1)C(=O)N1CCC[C@H]1C(=O)N[C@H](Cc1cccc2ccccc12)C(=O)O)[C@@H](C)OC)C(C)C` [Compound 17, Sar-Arg-Val-Tyr-Thr(Me)-His-Pro-(D-1Nal)-OH], the Emax on hAT1R [1] was found to be 4%. In addition, on hAT1R [2], the 50% inhibitory concentration (IC50) stood at 6 nM and the Emax came to 100%.
Consider `CNCC(=O)N[C@@H](CCCNC(=N)N)C(=O)N[C@H](C(=O)N[C@@H](Cc1ccc(O)cc1)C(=O)N[C@@H](Cc1ccccc1)C(=O)N[C@@H](Cc1c[nH]cn1)C(=O)N1CCC[C@H]1C(=O)N[C@H](Cc1cccc2ccccc12)C(=O)O)C(C)C` [Compound 16, Sar-Arg-Val-Tyr-Phe-His-Pro-(D-1Nal)-OH] (HELM PEPTIDE1{[Sar].R.V.Y.F.H.P.[O=C(O)[C@@H](Cc1cccc2ccccc12)N[*:1]]}$$$$V2.0), for which the Emax on hAT1R [1] (setting [3]) is 6%; on hAT1R [2], 99%. Further, the IC50 on hAT1R [2] (setting [4]) was found to be 5 nM.
On the same counts, the results for `CNCC(=O)N[C@@H](CCCNC(=N)N)C(=O)N[C@H](C(=O)N[C@@H](Cc1ccc(O)cc1)C(=O)N[C@H](C(=O)N[C@@H](Cc1c[nH]cn1)C(=O)N1CCC[C@H]1C(=O)N[C@H](Cc1ccccc1Cl)C(=O)O)C1CCCC1)C(C)C` [Compound 18, Sar-Arg-Val-Tyr-Cpg-His-Pro-(D-Phe(2-Cl))—OH] (HELM PEPTIDE1{[Sar].R.V.Y.[O=C([C@@H](N[*:1])C1CCCC1)[*:2]].H.P.[O=C(O)[C@@H](Cc1ccccc1Cl)N[*:1]]}$$$$V2.0) are 3%, 99% and 10.1 nM.
Regarding `CC[C@H](C)[C@H](NC(=O)[C@@H]1CCCN1C(=O)[C@H](Cc1c[nH]cn1)NC(=O)[C@@H](NC(=O)[C@H](Cc1ccc(O)cc1)NC(=O)[C@@H](NC(=O)[C@H](CCCNC(=N)N)NC(=O)CNC)C(C)C)[C@@H](C)CC)C(=O)O` [Ref. Cpd. 1, Sar-Arg-Val-Tyr-Ile-His-Pro-Ile-OH, reference compound], the figures for the Emax on hAT1R [1] (setting [3]) and at hAT1R [2] were 42% and 99%, respectively.
Turning to `CC(C)[C@H](NC(=O)[C@H](CCCNC(=N)N)NC(=O)CNC[C@H](O)[C@@H](O)[C@H](O)[C@H](O)CO)C(=O)N[C@@H](Cc1ccc(O)cc1)C(=O)N[C@H](C(=O)N[C@@H](Cc1c[nH]cn1)C(=O)N1CCC[C@H]1C(=O)N[C@H](Cc1ccccc1-c1ccccc1)C(=O)O)C1CCCCC1` [Compound 42, Glac-Arg-Val-Tyr-Chg-His-Pro-(D-Phe(2-Ph))—OH] (H-[X1]RVY[Chg]HP[dPhe(2-Ph)]-OH), the figures for the Emax on hAT1R [1] (setting [3]) and at hAT1R [2] were 10% and 101%, respectively. Also, on hAT1R [2] (setting [4]), the 50% inhibitory concentration (IC50) was 28.5 nM.
On the same counts, the results for `CNCC(=O)N[C@@H](CCCNC(=N)N)C(=O)N[C@H](C(=O)N[C@@H](Cc1ccc(O)cc1)C(=O)N[C@H](C(=O)N[C@@H](Cc1c[nH]cn1)C(=O)N1CCC[C@H]1C(=O)N[C@H](Cc1csc2ccccc12)C(=O)O)C1CCCCC1)C(C)C` [Compound 35, Sar-Arg-Val-Tyr-Chg-His-Pro-(D-(3-benzothienyl)alanine)-OH] (HELM PEPTIDE1{[Sar].R.V.Y.[O=C([C@@H](N[*:1])C1CCCCC1)[*:2]].H.P.[O=C(O)[C@@H](Cc1csc2ccccc12)N[*:1]]}$$$$V2.0) are 6%, 100% and 14.3 nM.
Turning to `CNCC(=O)N[C@@H](CCCNC(=N)N)C(=O)N[C@H](C(=O)N[C@@H](Cc1ccc(O)cc1)C(=O)N[C@H](C(=O)N[C@@H](Cc1c[nH]cn1)C(=O)N1CCC[C@H]1C(=O)N[C@H](Cc1ccccc1Cl)C(=O)O)C(C)C)C(C)C` [Compound 4, Sar-Arg-Val-Tyr-Val-His-Pro-(D-Phe(2-Cl))—OH] (HELM PEPTIDE1{[Sar].R.V.Y.V.H.P.[O=C(O)[C@@H](Cc1ccccc1Cl)N[*:1]]}$$$$V2.0), the Emax is 6% on hAT1R [1] (setting [3]) and 99% on hAT1R [2]. Also, at hAT1R [2] (setting [4]), the IC50 stood at 10.7 nM.
On to `CNCC(=O)N[C@@H](CCCNC(=N)N)C(=O)N[C@H](C(=O)N[C@@H](Cc1ccc(O)cc1)C(=O)N[C@@H](Cc1ccc(N)cc1)C(=O)N[C@@H](Cc1c[nH]cn1)C(=O)N1CCC[C@H]1C(=O)N[C@H](Cc1cccc2ccccc12)C(=O)O)C(C)C` [Compound 13, Sar-Arg-Val-Tyr-Aph-His-Pro-(D-1Nal)-OH] (HELM PEPTIDE1{[Sar].R.V.Y.[Nc1ccc(C[C@H](N[*:1])C(=O)[*:2])cc1].H.P.[O=C(O)[C@@H](Cc1cccc2ccccc12)N[*:1]]}$$$$V2.0), for which the Emax was 7% on hAT1R [1] (setting [3]) and 100% at hAT1R [2]. The 50% inhibitory concentration (IC50) on hAT1R [2] (setting [4]) was determined as 3.2 nM.
In the same order, the values of `Cc1ccccc1C[C@@H](NC(=O)[C@@H]1CCCN1C(=O)[C@H](Cc1c[nH]cn1)NC(=O)[C@@H](NC(=O)[C@H](Cc1ccc(O)cc1)NC(=O)[C@@H](NC(=O)[C@H](CCCNC(=N)N)NC(=O)CNC[C@H](O)[C@@H](O)[C@H](O)[C@H](O)CO)C(C)C)C(C)C)C(=O)O` [Compound 45, Glac-Arg-Val-Tyr-Val-His-Pro-(D-Phe(2-Me))—OH] (HELM PEPTIDE1{[O=C(CNC[C@H](O)[C@@H](O)[C@H](O)[C@H](O)CO)[*:2]].R.V.Y.V.H.P.[Cc1ccccc1C[C@@H](N[*:1])C(=O)O]}$$$$V2.0) are 6%, 101% and 18.6 nM.
On the same counts, the results for `CNCC(=O)N[C@@H](CCCNC(=N)N)C(=O)N[C@H](C(=O)N[C@@H](Cc1ccc(O)cc1)C(=O)N[C@H](C(=O)N[C@@H](Cc1c[nH]cn1)C(=O)N1CCC[C@H]1C(=O)N[C@H](Cc1ccccc1-c1ccccc1)C(=O)O)C(C)C)C(C)C` [Compound 6, Sar-Arg-Val-Tyr-Val-His-Pro-(D-Phe(2-Ph))—OH] (HELM PEPTIDE1{[Sar].R.V.Y.V.H.P.[O=C(O)[C@@H](Cc1ccccc1-c1ccccc1)N[*:1]]}$$$$V2.0) are 10%, 99% and 16.6 nM.
In the same order, the values of `CC(C)[C@H](NC(=O)[C@H](CCCNC(=N)N)NC(=O)CNC[C@H](O)[C@@H](O)[C@H](O)[C@H](O)CO)C(=O)N[C@@H](Cc1ccc(O)cc1)C(=O)N[C@H](C(=O)N[C@@H](Cc1c[nH]cn1)C(=O)N1CCC[C@H]1C(=O)N[C@H](Cc1ccccc1Cl)C(=O)O)C1CCCC1` [Compound 43, Glac-Arg-Val-Tyr-Cpg-His-Pro-(D-Phe(2-Cl))—OH] (H-[X1]RVY[Gly(cPent)]HP[dPhe(2-Cl)]-OH) are 6%, 100% and 16.6 nM.
